Source: US11484029B2, “Method for controlling building-inhabiting pest and composition for controlling building-inhabiting pest” (priority 2017, dated 2022)

Key:
[1] = tested on: Watarida colony (susceptible strain) of German cockroach (Blattella germanica); test: Heat volatilization test; type: in vivo; conditions: 1 g of sample heated at 300° C., after 15 hours
Method: Sample: a compound represented by Formula (2)
Test insect: Watarida colony (susceptible strain) of German cockroach (Blattella germanica)
After 15 hours, examination of life or death was performed on the tested cockroaches, and the fatality rate was calculated.

[2] = tested on: Denken colony (susceptible strain) of German cockroach (Blattella germanica); test: Repellency test (treated vs non-treated shelter); type: in vivo; conditions: 0.3 μg/cm^2, after 7 days
Method: Sample: a compound represented by Formula (2), and etofenprox (control agent)
Test insect: Denken colony (susceptible strain) of German cockroach (Blattella germanica)
Test method: A test compound diluted with acetone was treated and dried on a glass disc having a diameter of 12 cm so as to be 0.3 μg/cm^2. A pet cup having 6 cm in inner diameter×0.5 cm in height was cut so as to have an entrance, and the pet cup was turned over and placed on the glass disc to make a shelter. A non-treated shelter and a drug-treated shelter were placed in the center of an acrylic box having 30 cm×15 cm, well water and rat feed were added as food, and 15 males and 15 females of German cockroach were released. After 7 days, the number of surviving insects, the number of dead insects, the number of agonizing insects, and the habitat were examined. Further, a KD (knockdown) rate and a repellency rate were calculated by the following equations. KD rate (%)=(the number of dead insects+the number of agonizing insects)/the number of released insects×100 Repellency rate (%)=(1−the number of cockroaches in treated area/(the number of cockroaches in treated area+the number of cockroaches in non-treated area)×100

[3] = tested on: Denken German cockroach; test: Forced contact with treated glass disc; type: in vivo, Blattella germanica; conditions: forcibly brought into contact with glass disc treated at 0.3 μg/cm^2, within 48 hours
Method: The Denken German cockroach had 100% knockdown within 48 hours when forcibly brought into contact with a glass disc that had been treated with the compound of Formula (2) and etofenprox so as to have a concentration of 0.3 μg/cm^2.

[4] = tested on: bed bug (Cimex lectularius); test: Drug efficacy test, topical application (50% lethal dose); type: in vivo; conditions: for 50% lethal dose: female adult, topical application, mortality three days later
Source text: (§1) Test drug: a compound represented by Formula (2)
(§2) Test insect: Watarida colony (susceptible strain) of German cockroach (Blattella germanica); Hamamatsu-cho colony (resistant strain) of German cockroach (Blattella germanica); Teikyo University colony (susceptible strain) of bed bug (Cimex lectularius); and Chiba colony (resistant strain) of bed bug (Cimex lectularius),
(§3) Insecticidal test: An acetone solution of a compound represented by Formula (2) was applied to the chest of a target insect female adult by using a topical application device. The mortality was examined six days later for the German cockroach and three days later for the bed bug, and each 50% lethal dose was determined. Further, the resistance ratio was calculated by the following equation. Resistance ratio=50% lethal dose of resistant strain/50% lethal dose of susceptible strain

[5] = tested on: German cockroach (Blattella germanica); test: as above; type: in vivo; conditions: for 50% lethal dose: female adult, topical application, mortality six days later
Source text: as §1, §2, §3

CN(C(=O)c1ccccc1)c1cccc(C(=O)Nc2c(Br)cc(C(F)(C(F)(F)F)C(F)(F)F)cc2C(F)(F)F)c1F [Compound represented by Formula (2), 2-fluoro-3-(N-methylbenzamide)-N-(2-bromo-6-trifluoromethyl-4-(heptafluoropropane-2-yl)phenyl)benzamide]
fatality rate ([1]; inside the slit box): 100% | fatality rate ([1]; outside the slit box): 100% | repellent effect (conclusion in words) [2]: has no repellent effect | Non-treated shelter Number of agonizing insects ([2]; Total (30 released)): 0 | Non-treated shelter Number of dead insects ([2]; Total (30 released)): 0 | Non-treated shelter Number of surviving insects ([2]; Total (30 released)): 0 | Outside the area Number of agonizing insects ([2]; Total (30 released)): 3 | Outside the area Number of dead insects ([2]; Total (30 released)): 27 | Outside the area Number of surviving insects ([2]; Total (30 released)): 0 | Treated shelter Number of agonizing insects ([2]; Total (30 released)): 0 | Treated shelter Number of dead insects ([2]; Total (30 released)): 0 | Treated shelter Number of surviving insects ([2]; Total (30 released)): 0 | KD rate ([2]; Total): 100% | Non-treated shelter Number of agonizing insects ([2]; female (15 released)): 0 | Non-treated shelter Number of dead insects ([2]; female (15 released)): 0 | Non-treated shelter Number of surviving insects ([2]; female (15 released)): 0 | Outside the area Number of agonizing insects ([2]; female (15 released)): 2 | Outside the area Number of dead insects ([2]; female (15 released)): 13 | Outside the area Number of surviving insects ([2]; female (15 released)): 0 | Treated shelter Number of agonizing insects ([2]; female (15 released)): 0 | Treated shelter Number of dead insects ([2]; female (15 released)): 0 | Treated shelter Number of surviving insects ([2]; female (15 released)): 0 | KD rate ([2]; female): 100% | Non-treated shelter Number of agonizing insects ([2]; male (15 released)): 0 | Non-treated shelter Number of dead insects ([2]; male (15 released)): 0 | Non-treated shelter Number of surviving insects ([2]; male (15 released)): 0 | Outside the area Number of agonizing insects ([2]; male (15 released)): 1 | Outside the area Number of dead insects ([2]; male (15 released)): 14 | Outside the area Number of surviving insects ([2]; male (15 released)): 0 | Treated shelter Number of agonizing insects ([2]; male (15 released)): 0 | Treated shelter Number of dead insects ([2]; male (15 released)): 0 | Treated shelter Number of surviving insects ([2]; male (15 released)): 0 | KD rate ([2]; male): 100% | knockdown [3]: 100% | Resistance ratio ([4]; 50% lethal dose of resistant strain (Chiba)/susceptible strain (Teikyo University)): 11.4 | 50% lethal dose ([4]; Chiba colony (resistant strain)): 14.8 ng/insect | 50% lethal dose ([4]; Teikyo University colony (susceptible strain)): 1.3 ng/insect | Resistance ratio ([5]; 50% lethal dose of resistant strain (Hamamatsu-cho)/susceptible strain (Watarida)): 1.9 | 50% lethal dose ([5]; Hamamatsu-cho colony (resistant strain)): 21.5 ng/insect | 50% lethal dose ([5]; Watarida colony (susceptible strain)): 11.2 ng/insect

CCOc1ccc(C(C)(C)COCc2cccc(Oc3ccccc3)c2)cc1 [Etofenprox, etofenprox]
repellent effect (conclusion in words) [2]: has a repellent effect | Non-treated shelter Number of agonizing insects ([2]; Total (30 released)): 0 | Non-treated shelter Number of dead insects ([2]; Total (30 released)): 0 | Non-treated shelter Number of surviving insects ([2]; Total (30 released)): 29 | Outside the area Number of agonizing insects ([2]; Total (30 released)): 0 | Outside the area Number of dead insects ([2]; Total (30 released)): 1 | Outside the area Number of surviving insects ([2]; Total (30 released)): 0 | Treated shelter Number of agonizing insects ([2]; Total (30 released)): 0 | Treated shelter Number of dead insects ([2]; Total (30 released)): 0 | Treated shelter Number of surviving insects ([2]; Total (30 released)): 0 | KD rate ([2]; Total): 3% | Repellency rate ([2]; Total): 100% | Non-treated shelter Number of agonizing insects ([2]; female (15 released)): 0 | Non-treated shelter Number of dead insects ([2]; female (15 released)): 0 | Non-treated shelter Number of surviving insects ([2]; female (15 released)): 15 | Outside the area Number of agonizing insects ([2]; female (15 released)): 0 | Outside the area Number of dead insects ([2]; female (15 released)): 0 | Outside the area Number of surviving insects ([2]; female (15 released)): 0 | Treated shelter Number of agonizing insects ([2]; female (15 released)): 0 | Treated shelter Number of dead insects ([2]; female (15 released)): 0 | Treated shelter Number of surviving insects ([2]; female (15 released)): 0 | KD rate ([2]; female): 0% | Repellency rate ([2]; female): 100% | Non-treated shelter Number of agonizing insects ([2]; male (15 released)): 0 | Non-treated shelter Number of dead insects ([2]; male (15 released)): 0 | Non-treated shelter Number of surviving insects ([2]; male (15 released)): 14 | Outside the area Number of agonizing insects ([2]; male (15 released)): 0 | Outside the area Number of dead insects ([2]; male (15 released)): 1 | Outside the area Number of surviving insects ([2]; male (15 released)): 0 | Treated shelter Number of agonizing insects ([2]; male (15 released)): 0 | Treated shelter Number of dead insects ([2]; male (15 released)): 0 | Treated shelter Number of surviving insects ([2]; male (15 released)): 0 | KD rate ([2]; male): 7% | Repellency rate ([2]; male): 100% | knockdown [3]: 100% | Resistance ratio ([4]; etofenprox to bed bugs, strains not stated): ≥ 10000
